What was measured:
Myzus persicae [1] = assay: Toxicity test on larval development on Ap3 feeding medium (larval mortality, weight of wingless adults); assay type: in vivo
Method: The goal is to quantify the toxic effect of 3,5-diCQ on the aphid throughout its larval development, namely 8 to 10 days for Myzus persicae at 19° C. The molecule is added at various concentrations to the Ap3 feeding medium.
(§1) The medium ([…]) is poured between two UV-sterilized Parafilm® membranes and drawn onto a cylindrical support made of PVC (h=1.5 cm, d=2 cm), under sterile conditions. On Day D0, 20 neonate larvae are placed inside the cylinder, which is then turned over and pressed onto a square of Parafilm®. The dishes are placed under dimmed light (16 hr day/8 hr night) and in an enclosure set at 19° C. The fixation percentage is recorded after 1 hour as a short-term phagostimulation indicator and in order to verify that no anomaly had occurred when the aphids were placed inside the cylinder. Larval mortality is noted daily at the end of the day. On Day D+3, the larvae are sampled and split up into two new dishes. On the day of their adult molt, the aphids that have reached the wingless adult stage are deposited successively onto a precision scale (d=0.01 mg) and the cumulative weights are recorded for each concentration of each tested molecule. Individual weights are calculated thereafter. The effects of a single molecule at all concentrations and the effects of the control medium are evaluated simultaneously during the same test. The tests are routinely performed in 3 repetitions.

Acyrtosiphon pisum [2] = assay: Selection test (phagorepulsive effect), first-stage larvae; assay type: in vivo, Acyrthosiphon pisum; conditions: FIG. 21
Description: (§2) The goal is to evaluate the attractive or repulsive character of a candidate molecule, at various concentrations, either in relation to a control base medium or in relation to another substance. The base medium used, referred to as Ap3 (composition in the table in FIG. 10), was developed at the UMR INRA-INSA in Lyon in order to enable optimal development of the Acyrtosiphon pisum aphid species (Febvay et al. (1988) Canadian Journal of Zoology 66: 2149-2453). It also enables the development of Myzus persicae. This base medium may or may not be supplemented by the various phenolic acids tested. The aphid's selected behavior when placed in the presence of both media is studied inside a closed system where the insect has no alternative in order to feed itself but to select one of the two media. The device is shown in diagram form in FIG. 11.
(§3) The medium (35 μl) is poured between two Parafilm® membranes stretched onto an Eppendorf® cone. On a rack holding 6 experiment cages, a control medium is arranged opposite a test medium on each cage. […] The following morning, the number of aphids fixed on each medium is recorded. […] A phagostimulation index, representing the degree of desire for the aphid in the test medium, is calculated as follows: Phagostimulation index=(Test no.−Control no.)/Total no., wherein: […]

Macrosiphum euphorbiae [3] = assay: as above; assay type: in vivo; conditions: FIG. 23
Description: as §2, §3

Acyrtosiphon pisum [4] = assay: Toxicity test during larval development; assay type: in vivo; conditions: FIG. 22
Method: as §1
(§4) Regarding the toxicity tests, no changes were made to the protocol for tests on Macrosiphum euphorbiae. However, given the size and sensitivity to stress of Acyrthosiphon pisum, the number of individuals per dish was changed to 10, the number of repetitions per tested dose was changed to 4, and no change was made to the medium during the test, as excessive disturbance of the aphids would have resulted from doing so.

Macrosiphum euphorbiae [5] = assay: Toxicity test during larval development; assay type: in vivo; conditions: FIG. 24
Method: as §1, §4

chewing insects = conditions: Tamura et al. 2004; Mullin et al. 1991; cited from earlier work
Myzus persicae [6] = assay: Selection test between two media (phagostimulation index, repulsivity); assay type: in vivo; conditions: for concentration at which significantly repulsive: against Ap3 control medium; for concentration at which the repulsive effect (negative phagostimulation index) is significant: tested against Ap3 medium, lowest concentration tested 0.25 mM
Description: The method used is the one developed by Yvan Rahbé (Rahbé & Febvay (1993) Entomologia Experimentalis et Applicata 67: 149-160; Chen (1996) Thesis, Institut National des Sciences Appliquées, Lyon, France: 158 pp.) in the context of research on the chemical determinants of plant resistance to various aphid species (Aphis gossypii, Acyrthosiphon pisum), and adapted to the green peach aphid, Myzus persicae.
as §2
The medium (35 μl) is poured between two Parafilm® membranes stretched onto an Eppendorf® cone. On a rack holding 6 experiment cages, a control medium is arranged opposite a test medium on each cage. The repetitions of a single modality (control medium or test medium) are arranged in alternating fashion along the rack, in order to prevent any systematic bias when the aphids are placed inside. At the end of the day, six aphid larvae (second or third stage) are placed inside each of the cages of one rack. Next, the racks are inserted into a black box placed inside a climate-controlled test chamber at 19° C. for 15 hours. This passage into darkness stabilizes the larvae's fixation more quickly. The following morning, the number of aphids fixed on each medium is recorded. The tests are performed in routine fashion on 24 selection repetitions (4 racks with 6 cages each). A phagostimulation index, representing the degree of desire for the aphid in the test medium, is calculated as follows: Phagostimulation index=(Test no.−Control no.)/Total no., wherein:
Test no.=Number of aphids fixed on the test medium,
Control no.=Number of aphids fixed on the control medium,
Total no.=Total number of fixed aphids.
Consequently, the value of the index ranges from −1 to 1. A negative index means that the test medium is repulsive in relation to the control medium, and a positive index means that the test medium is attractive. The hypothesis that the effect of the test medium is identical to that of the control medium is examined by the Wilcoxon rank test.
The tested phenolic substances other than 3,5-diCQ are of commercial origin apart from the caffeic acid methyl ester, which was synthesized. The molecules were characterized by mass spectrometry and proton nuclear magnetic resonance. The amount and stability of the dissolved molecules are monitored by HPLC after the molecules are dissolved in the Ap3 medium, at the beginning and at the end of the experiment.

[7] = FIG. 15, range 0.03125 to 1 mM, against Ap3

For `O=C(/C=C/c1ccc(O)c(O)c1)O[C@@H]1C[C@](OC(=O)/C=C/c2ccc(O)c(O)c2)(C(=O)O)C[C@@H](O)[C@H]1O` [1,5-diCQ, 1,5-dicaffeoylquinic acid], which “toxic effect on larval development (in words)” value (Myzus persicae [1]; in vivo) is on record?
Its value is “toxic activity”.

For `O=C(/C=C/c1ccc(O)c(O)c1)O[C@@H]1CC(O)(C(=O)O)C[C@@H](OC(=O)/C=C/c2ccc(O)c(O)c2)C1O` (stereo partly drawn) [3,5-diCQ, 3,5-dicaffeoylquinic acid], which “dose starting at which significant repulsive effect” value (Acyrtosiphon pisum [2]) is on record?
Its value is 0.03125 mM.

What about the “toxic effect at 0.03125 mM (in words)” value (Myzus persicae [1]; 0.03125 mM) of the same molecule?
The value was “no toxic or repulsive effect”.

What about the “reaching the wingless adult stage” value (Myzus persicae [1]; 1 and 2 mM concentrations) of the same molecule?
Its value is “no aphids reached the wingless adult stage”.

What about the larval mortality (Myzus persicae [1]; FIG. 16, at 2 mM) of the same molecule?
Its larval mortality is roughly 100%.

What about the “dose starting at which significant depressive effect on weight of wingless adults” value (Myzus persicae [1]; FIG. 17) of the same molecule?
The value was 0.25 mM.

What about the “dose with significant depressive effect on weight of wingless adults” value (Myzus persicae [1]; FIG. 20) of the same molecule?
The value was 0.5 mM.

What about the “toxic effect on larval development (in words)” value (Myzus persicae [1]; in vivo) of the same molecule?
Its value is “high mortality”.

And the “toxic effect on larval development (in words)” value (Myzus persicae [1]; in vivo, listed as 3,5-dicaffeoylquinic acid)?
The value was “toxic activity”.

What about the “dose starting at which highly significant repulsive effect” value (Macrosiphum euphorbiae [3]) of the same molecule?
Its value is 0.125 mM.

What about the mortality (Acyrtosiphon pisum [4]; starting at 0.03125 mM, within 2 days) of the same molecule?
The mortality was “exceeds 50%”.

And the mortality (Acyrtosiphon pisum [4]; starting at 0.25 mM, within 4 days)?
Its mortality is 100%.

And the mortality (Macrosiphum euphorbiae [5]; 0.25 mM dose, within 6 days)?
The mortality was roughly 100%.

What about the mortality (Macrosiphum euphorbiae [5]; 0.5 and 1 mM doses, within 3 to 7 days) of the same molecule?
Its mortality is 100%.

What about the “effect on feeding of chewing insects (in words)” value (chewing insects) of the same molecule?
Its value is “phagostimulating effect”.

And the “repulsive effect at 0.03125 mM (in words)” value (Myzus persicae [6]; 0.03125 mM)?
The value was “no toxic or repulsive effect”.

What about the “concentration at which significantly repulsive” value (Myzus persicae [6]; FIG. 13) of the same molecule?
The value was 0.125 mM.

What about the “choice between 3,5-diCQ and chlorogenic acid at a single molarity” value (Myzus persicae [6]; FIG. 13, tested against each other, at 0.125 mM) of the same molecule?
Its value is “systematically selects CA rather than 3,5-diCQ”.

And the “repulsive effect of 0.5 mM versus chlorogenic acid at 2 mM” value (Myzus persicae [6]; FIG. 14, pH 7.5, CA four times higher)?
The value was “remains repulsive”.

What about the “dose with highly significant repulsive effect” value (Myzus persicae [6]; [7]) of the same molecule?
Its value is 0.125 mM.

And the “minimum concentration at which repulsive effect is detectable” value (Myzus persicae [6]; in vivo)?
The value was 125 µM.

And the “repulsive effect / activity (in words)” value (Myzus persicae [6]; in vivo)?
Its value is “repulsive activity”.

What about the “minimum concentration at which repulsive effect is detectable” value (Myzus persicae [6]; same value converted) of the same molecule?
Its value is 64.5 mg/L.

Which results are given for `O=C(/C=C/c1ccc(O)c(O)c1)O[C@H]1[C@H](O)C[C@](O)(C(=O)O)C[C@H]1OC(=O)/C=C/c1ccc(O)c(O)c1` [4,5-diCQ, 4,5-dicaffeoylquinic acid]?
dose with significant depressive effect on weight of wingless adults (Myzus persicae [1]; FIG. 20): 0.25 mM; toxic effect on larval development (in words) (Myzus persicae [1]; in vivo): toxic activity; dose starting at which significant repulsive effects were detected (Myzus persicae [6]; [7]): 0.03125 mM; dose with highly significant repulsive effect (Myzus persicae [6]; [7]): 0.125 mM; repulsive effect / activity (in words) (Myzus persicae [6]; in vivo): repulsive activity

Which “repulsive effect (in words)” value (Myzus persicae [6]; FIG. 12, concentration range tested, against Ap3 medium) does the source give for `O=C(O)/C=C/c1ccc(O)cc1` [Para-coumaric acid, para-coumaric acid, reference compound] here?
Its value is “no repulsive effect”.

What does the source list for `O=C(/C=C/c1ccc(O)c(O)c1)O[C@@H]1C[C@](O)(C(=O)O)C[C@@H](O)[C@H]1O` [chlorogenic acid, 5-caffeoylquinic acid, reference compound]?
effect on weight of wingless adults (in words) (Myzus persicae [1]; FIG. 18): probiotic effect; larval mortality (Myzus persicae [1]; in vivo): ≤ 10%; toxic effect on larval development (in words) (Myzus persicae [1]; in vivo): no negative effects; concentration at which the repulsive effect (negative phagostimulation index) is significant (Myzus persicae [6]; FIG. 12): 0.5 mM; concentration at which significantly repulsive (Myzus persicae [6]; FIG. 13): 0.25 mM

Which results are given for `O=C(/C=C/c1ccc(O)c(O)c1)O[C@@H]1C[C@@](OC(=O)/C=C/c2ccc(O)c(O)c2)(C(=O)O)C[C@@H](O)[C@@H]1O` [cynarin]?
effect on the aphids' weights (in words) (Myzus persicae [1]; FIG. 20, at the 0.25 mM dose): no effect; concentration at which the repulsive effect (negative phagostimulation index) is significant (Myzus persicae [6]; FIG. 12): 1 mM
